Measurements: DBAASP
≈ marks a conversion by molar mass, not a printed value.

Assays:
Assay in all cases: ≥ marks a high value that may be exact or a test limit, other limits are often not marked, values filed in µg/mL are converted to µM
[1] = tested on: Staphylococcus aureus MU50
Staphylococcus aureus MR = tested on: Staphylococcus aureus MR
[2] = tested on: Staphylococcus aureus VRSA1
[3] = tested on: Micrococcus luteus CCM 144
Bacillus subtilis 168 = tested on: Bacillus subtilis 168
[4] = tested on: Bacillus subtilis var. niger ATCC 9372
Escherichia coli K91BK = tested on: Escherichia coli K91BK
[5] = tested on: Bacillus anthracis Sterne 34F2
[6] = tested on: Bacillus subtilis KCTC 3068
[7] = tested on: Salmonella typhimurium KCTC 1926
[8] = tested on: Staphylococcus epidermidis KCTC 1917
[9] = tested on: Pseudomonas aeruginosa KCTC 1637
[10] = tested on: Escherichia coli KCTC 1682
[11] = tested on: Staphylococcus aureus KCTC 1916
Escherichia coli JM109 = tested on: Escherichia coli JM109
[12] = tested on: Staphylococcus aureus ATCC 6538P
Staphylococcus aureus = tested on: Staphylococcus aureus
Escherichia coli BL21AI = tested on: Escherichia coli BL21AI
[13] = tested on: Micrococcus luteus ATCC 10240
[14] = tested on: Streptococcus pyogenes KCTC 3096
[15] = tested on: Staphylococcus aureus KCTC 1621
[16] = tested on: Bacillus subtilis KCTC 1918
[17] = tested on: Fusarium oxysporum KCTC 6084
Proteus vulgaris = tested on: Proteus vulgaris
[18] = tested on: Candida albicans KCTC 7121
[19] = tested on: Bacillus megaterium KCTC 1096
[20] = tested on: Trichosporon beigelii KCTC 7251
[21] = tested on: Aspergillus flavus KCTC 7375
[22] = tested on: Streptococcus pneumoniae ATCC 49619
[23] = tested on: Mycobacterium tuberculosis H37Rv

CC[C@H](C)[C@@H]1NC(=O)[C@@H]2CSSC[C@@H]3NC(=O)[C@H](CCCCN)NC(=O)[C@H](CC(=O)O)NC(=O)[C@H](CCC(N)=O)NC(=O)[C@H](Cc4ccccc4)NC(=O)[C@H](Cc4ccccc4)NC(=O)[C@@H]4CCCN4C(=O)[C@@H](NC(=O)[C@H](Cc4ccc(O)cc4)NC(=O)[C@H](Cc4ccc(O)cc4)NC(=O)CNC(=O)CN)CSSC[C@H](NC(=O)[C@H](Cc4ccc(O)cc4)NC(=O)CNC(=O)[C@H](C)NC(=O)[C@H](CCCCN)NC(=O)[C@H](CCCN=C(N)N)NC(=O)CNC(=O)[C@H](Cc4ccccc4)NC(=O)[C@H](CO)NC(=O)[C@H](CCCN=C(N)N)NC(=O)[C@H](CSSC[C@@H](C(=O)N[C@H](C(=O)O)C(C)C)NC1=O)NC(=O)[C@H](Cc1cnc[nH]1)NC(=O)[C@H](CCCN=C(N)N)NC(=O)[C@H](Cc1cnc[nH]1)NC3=O)C(=O)NCC(=O)NCC(=O)N[C@@H](Cc1ccccc1)C(=O)N[C@@H](CC(C)C)C(=O)N[C@@H](CCCCN)C(=O)N[C@@H](CCCCN)C(=O)N[C@@H]([C@@H](C)O)C(=O)N2 [GGYYCPFFQDKCHRHCRSFGRKAGYCGGFLKKTCICV]
MIC [1]: 7.55 µM (≈ 32 µg/mL)
MIC (Staphylococcus aureus MR): 3.78 µM (≈ 16 µg/mL)
MIC [2]: 7.55 µM (≈ 32 µg/mL)
MIC [3]: 0.75 µM (≈ 3.17 µg/mL)
MIC (Bacillus subtilis 168): 1.5 µM (≈ 6.35 µg/mL)

CC[C@H](C)[C@H](NC(=O)CNC(C)=O)C(=O)NCC(=O)N[C@@H](CCCCN)C(=O)N[C@@H](Cc1ccccc1)C(=O)N[C@@H](CC(C)C)C(=O)N[C@@H](CCCCN)C(=O)N[C@@H](CCCCN)C(=O)N[C@@H](C)C(=O)N[C@@H](CCCCN)C(=O)N[C@@H](CCCCN)C(=O)N[C@@H](Cc1ccccc1)C(=O)NCC(=O)N[C@@H](CCCCN)C(=O)N[C@@H](C)C(=O)N[C@@H](Cc1ccccc1)C(=O)N[C@H](C(=O)N[C@@H](CCCCN)C(=O)N[C@H](C(=O)N[C@@H](CC(C)C)C(=O)N[C@@H](CCCCN)C(=O)N[C@@H](CCCCN)C(N)=O)[C@@H](C)CC)C(C)C [GIGKFLKKAKKFGKAFVKILKK]
MIC [4]: 1.56 µM (≈ 3.93 µg/mL)
MIC (Escherichia coli K91BK): ≥ 100 µM
MIC [5]: 25 µM (≈ 63 µg/mL)

CC[C@H](C)[C@H](NC(=O)[C@H](CCCN=C(N)N)NC(=O)[C@H](CC(C)C)NC(=O)[C@H](CCC(N)=O)NC(=O)[C@H](CCCCN)NC(=O)[C@H](CC(C)C)NC(=O)[C@H](CC(C)C)NC(=O)[C@H](CC(C)C)NC(=O)[C@@H](NC(=O)[C@H](CCCCN)NC(=O)[C@H](CC(=O)O)NC(=O)[C@H](C)NC(=O)[C@@H](NC(=O)[C@H](CCCCN)NC(=O)[C@@H](N)CCCCN)C(C)C)C(C)C)C(=O)N[C@@H](CCSC)C(=O)N[C@@H](CCCN=C(N)N)C(=O)N[C@@H](CC(C)C)C(=O)O [KKVADKVLLLKQLRIMRL]
MIC [6]: 2 µM (≈ 4.33 µg/mL)
MIC [7]: ≥ 64 µM
MIC [8]: ≥ 32 µM
MIC [9]: ≥ 32 µM
MIC [10]: 16 µM (≈ 34.7 µg/mL)
MIC [11]: 8 µM (≈ 17.3 µg/mL)

CC(=O)N[C@@H](CCCCN)C(=O)N[C@@H](CC(C)C)C(=O)N[C@@H](Cc1c[nH]c2ccccc12)C(=O)N[C@@H](CCCCN)C(=O)N[C@@H](CCCCN)C(=O)N[C@@H](Cc1c[nH]c2ccccc12)C(=O)N[C@@H](CCCCN)C(=O)N[C@@H](CCCCN)C(=O)N[C@@H](Cc1c[nH]c2ccccc12)C(=O)N[C@@H](CCCCN)C(=O)N[C@@H](CCCCN)C(N)=O [KLWKKWKKWKK]
MIC [4]: 25 µM (≈ 40.7 µg/mL)
MIC (Escherichia coli K91BK): ≥ 100 µM
MIC [5]: ≥ 100 µM

CC[C@H](C)[C@H](NC(=O)[C@H](C)NC(=O)[C@H](CC(C)C)NC(=O)[C@H](CS)NC(=O)[C@H](CCCN=C(N)N)NC(=O)[C@H](C)NC(=O)[C@H](C)NC(=O)[C@H](CS)NC(=O)[C@@H](N)CC(C)C)C(=O)NCC(=O)N[C@@H](CCCN=C(N)N)C(=O)N[C@@H](CCCN=C(N)N)C(N)=O [LCAARCLAIGRR]
MIC (Escherichia coli JM109): 24.6 µM (≈ 32 µg/mL)
MIC [12]: 5.76 µM (≈ 7.49 µg/mL)
MIC (Staphylococcus aureus): > 49.1 µM

CC[C@H](C)[C@H](NC(=O)[C@H](CCCN=C(N)N)NC(=O)[C@@H]1CCCN1C(=O)[C@H](Cc1cnc[nH]1)NC(=O)[C@@H]1CCCN1C(=O)[C@@H]1CCCN1C(=O)[C@H](CCCN=C(N)N)NC(=O)[C@@H]1CCCN1C(=O)[C@H](CCC(N)=O)NC(=O)[C@@H]1CCCN1C(=O)[C@@H](NC(=O)[C@H](Cc1ccc(O)cc1)NC(=O)[C@@H](NC(=O)[C@@H]1CCCN1C(=O)[C@H](CCCN=C(N)N)NC(=O)[C@H](CC(N)=O)NC(=O)[C@@H](N)CC(N)=O)C(C)C)[C@@H](C)CC)C(N)=O [NNRPVYIPQPRPPHPRI]
MIC (Escherichia coli BL21AI): 1.91 µM (≈ 3.91 µg/mL)
MIC [13]: 15.2 µM (≈ 31.2 µg/mL)

CC[C@H](C)[C@H](NC(=O)[C@@H](NC(=O)[C@@H](N)CCCN=C(N)N)[C@@H](C)CC)C(=O)N[C@@H](CC(=O)O)C(=O)N[C@@H](CC(C)C)C(=O)N[C@@H](CC(C)C)C(=O)N[C@@H](C)C(=O)N[C@@H](CCCN=C(N)N)C(=O)N[C@H](C(=O)N[C@@H](CCCN=C(N)N)C(=O)N[C@@H](CCCN=C(N)N)C(=O)N1CCC[C@H]1C(=O)N[C@@H](CCC(N)=O)C(=O)N[C@@H](CCCCN)C(=O)N1CCC[C@H]1C(=O)N[C@@H](CCCCN)C(=O)N[C@@H](Cc1ccccc1)C(=O)N[C@H](C(=O)N[C@H](C(=O)N[C@H](C(=O)N[C@@H](Cc1c[nH]c2ccccc12)C(=O)N[C@H](C(=O)N[C@@H](CCCN=C(N)N)C(=O)O)C(C)C)C(C)C)[C@@H](C)O)C(C)C)C(C)C [RIIDLLARVRRPQKPKFVTVWVR]
MIC [14]: 1.56 µM (≈ 4.44 µg/mL)
MIC [15]: 3.12 µM (≈ 8.9 µg/mL)
MIC [7]: 1.56 µM (≈ 4.44 µg/mL)
MIC [9]: 1.56 µM (≈ 4.44 µg/mL)
MIC [16]: 1.56 µM (≈ 4.44 µg/mL)
MIC [10]: 3.12 µM (≈ 8.9 µg/mL)

CC[C@H](C)[C@H](NC(=O)[C@H](CCCCN)NC(=O)[C@H](CCCCN)NC(=O)[C@H](Cc1ccccc1)NC(=O)[C@@H](N)Cc1c[nH]c2ccccc12)C(=O)N1CCC[C@H]1C(=O)N[C@@H](CCCCN)C(=O)N[C@@H](Cc1ccccc1)C(=O)N[C@@H](CC(C)C)C(=O)N[C@@H](Cc1cnc[nH]1)C(=O)N[C@@H](CC(C)C)C(=O)N[C@@H](C)C(=O)N[C@@H](CCCCN)C(=O)N[C@@H](CCCCN)C(=O)N[C@@H](Cc1ccccc1)C(N)=O [WFKKIPKFLHLAKKF]
MIC [15]: 3.12 µM (≈ 6.03 µg/mL)
MIC [17]: ≥ 100 µM
MIC (Proteus vulgaris): 1.56 µM (≈ 3.01 µg/mL)
MIC [18]: ≥ 100 µM
MIC [19]: 1.56 µM (≈ 3.01 µg/mL)
MIC [9]: 1.56 µM (≈ 3.01 µg/mL)
MIC [16]: 0.78 µM (≈ 1.51 µg/mL)
MIC [20]: ≥ 100 µM
MIC [10]: 12.5 µM (≈ 24.1 µg/mL)
MIC [21]: ≥ 100 µM

CC[C@H](C)[C@H](NC(=O)[C@H](CCCCN)NC(=O)[C@H](CCCCN)NC(=O)[C@@H](N)Cc1c[nH]c2ccccc12)C(=O)N1CCC[C@H]1C(=O)N[C@@H](CCCCN)C(=O)N[C@@H](Cc1ccccc1)C(=O)N[C@@H](CC(C)C)C(=O)N[C@@H](Cc1cnc[nH]1)C(=O)N[C@@H](CC(C)C)C(=O)N[C@@H](C)C(=O)N[C@@H](CCCCN)C(=O)N[C@@H](CCCCN)C(=O)N[C@@H](Cc1ccccc1)C(N)=O [WKKIPKFLHLAKKF]
MIC [15]: 3.12 µM (≈ 5.57 µg/mL)
MIC [17]: ≥ 200 µM
MIC (Proteus vulgaris): 3.12 µM (≈ 5.57 µg/mL)
MIC [18]: ≥ 200 µM
MIC [19]: 1.56 µM (≈ 2.78 µg/mL)
MIC [9]: 3.12 µM (≈ 5.57 µg/mL)
MIC [16]: 0.78 µM (≈ 1.39 µg/mL)
MIC [20]: ≥ 200 µM
MIC [10]: 12.5 µM (≈ 22.3 µg/mL)
MIC [21]: ≥ 200 µM

NCCCC[C@H](NC(=O)CNC(=O)CNC(=O)[C@H](CCCCN)NC(=O)[C@H](CCCCN)NC(=O)[C@H](Cc1cnc[nH]1)NC(=O)[C@H](CS)NC(=O)[C@H](CCC(N)=O)NC(=O)[C@H](CCCCN)NC(=O)[C@@H](N)Cc1ccc(O)cc1)C(=O)N[C@@H](CCCCN)C(=O)NCC(=O)N[C@@H](CO)C(=O)NCC(N)=O [YKQCHKKGGKKGSG]
MIC [22]: ≥ 300 µM
MIC [23]: ≥ 300 µM
